Experimental data as given in ChEMBL document CHEMBL5257032, “Therapeutic potential of coumarins as antiviral agents” (Eur J Med Chem, 2016).

Test system: Influenza A virus
Assay: Antiviral activity against Oseltamivir-resistant Influenza A virus
Assay type: functional, organism-based

Cc1cc(=O)oc2c1ccc1oc(C(=O)c3ccccc3)c(-c3ccccc3)c12
EC50: 21 nM
